Assay results published in US5438052A, “Cephalosporin derivatives” (Hoffmann-La Roche Inc., priority 1991, dated 1995).
In brackets after ≈: the same amount, converted by molar mass. Read-outs that look alike come from different tables or passages of the source.

Experiments:
E. cloacae 908SSi = experiment: Minimum inhibitory concentration in vitro, agar dilution method; format: cell-based; conditions: Enterobacter cloacae
Text: (§1) 1. Minimum Inhibitory Concentration in vitro
(§2) The activities ascertained, minimum inhibitory concentration (MIC) in μg/ml, are compiled in Table 1 hereinafter: […]

P. aeruginosa MK1184 = experiment: as above; format: cell-based; conditions: Pseudomonas aeruginosa
Text: as §1, §2

P. mirabilis 2117 = experiment: as above; format: cell-based; conditions: Proteus mirabilis
Text: as §1, §2

P. aeruginosa BA = experiment: as above; format: cell-based; conditions: Pseudomonas aeruginosa
Text: as §1, §2

C. freundii 902 = experiment: as above; format: cell-based; conditions: Citrobacter freundii
Text: as §1, §2

S. marcescens 69438 = experiment: as above; format: cell-based; conditions: Serratia marcescens
Text: as §1, §2

S. aureus 6538 = experiment: as above; format: cell-based; conditions: Staphylococcus aureus
Text: as §1, §2

E. cloacae 908R = experiment: as above; format: cell-based; conditions: Enterobacter cloacae
Text: as §1, §2

E. cloacae P99 = experiment: as above; format: cell-based; conditions: Enterobacter cloacae
Text: as §1, §2

P. vulgaris 1028 = experiment: as above; format: cell-based; conditions: Proteus vulgaris
Text: as §1, §2

E. coli 25922 [1] = experiment: as above; format: cell-based; conditions: Escherichia coli
Text: as §1, §2

P. aeruginosa 799/WT = experiment: as above; format: cell-based; conditions: Pseudomonas aeruginosa
Text: as §1, §2

K. oxytoca 1082 = experiment: as above; format: cell-based; conditions: Klebsiella oxytoca
Text: as §1, §2

K. pneumoniae 418 = experiment: as above; format: cell-based; conditions: Klebsiella pneumoniae
Text: as §1, §2

E. aerogenes CF153 = experiment: as above; format: cell-based; conditions: Klebsiella aerogenes; E. aerogenes CF153, agar dilution; read-out: MIC
Text: as §1, §2

S. pyogenes 15 = experiment: as above; format: cell-based; conditions: Streptococcus pyogenes
Text: as §1, §2

P. aeruginosa 27853 = experiment: as above; format: cell-based; conditions: Pseudomonas aeruginosa
Text: as §1, §2

P. aeruginosa 799/61 = experiment: as above; format: cell-based; conditions: Pseudomonas aeruginosa
Text: as §1, §2

[2] = tested on: Pseudomonas aeruginosa BA; experiment: Experimental systemic septicaemia in the mouse; format: in vivo; conditions: sc, 96 h
Procedure: (§3) 2. Experimental systemic septicaemia in the mouse
(§4) An experimental systemic septicaemia was produced in albino mice weighing 16-20 g by intraperitoneally injecting into the experimental animals a sample of a dilute culture of the test organism which had been grown overnight. The sample administered is calculated such that the dosage administered is about 5-100 times greater than the dosage which is required to kill 50% of untreated experimental animals within 48 hours. The bacteria were injected as a suspension in the culture broth. Groups of 5 experimental animals each were used not only for the control, but also for the treatment for each dosage tested. The products in accordance with the invention were administered subcutaneously as a suspension in Tween 80 (2%), whereby the concentrations were chosen such that each experimental animal received 500 μl per administration. The respective concentrations were administered twice, namely 1 and 3 hours after the infection (in the case of P. aeruginosa three times, namely 1, 3 and 5 hours after the infection). The ED50 is that dosage which protects 50% of the experimental animals and was calculated by means of the Probit method on the basis of the survial rate after 4 days following the infection. The ED50 values in mg/kg s.c. (subcutaneous) for representatives of the class of substance in accordance with the invention are given in Table 2 hereinafter.

E. coli 25922 [3] = experiment: Experimental systemic septicaemia in the mouse; format: in vivo; conditions: 96 h
Procedure: as §3, §4

S. pneumoniae BA = experiment: Minimum inhibitory concentration in vitro, agar dilution method; format: cell-based; conditions: Streptococcus pneumoniae
Text: as §1, §2

[4] = E. cloacae 908SSi, agar dilution, read-out: MIC
[5] = P. aeruginosa MK1184, agar dilution, read-out: MIC
[6] = P. mirabilis 2117, agar dilution, read-out: MIC
[7] = P. aeruginosa BA, agar dilution, read-out: MIC
[8] = C. freundii 902, agar dilution, read-out: MIC
[9] = S. marcescens 69438, agar dilution, read-out: MIC
[10] = S. aureus 6538, agar dilution, read-out: MIC
[11] = E. cloacae 908R, agar dilution, read-out: MIC
[12] = P. vulgaris 1028, agar dilution, read-out: MIC
[13] = E. coli 25922, agar dilution, read-out: MIC
[14] = P. aeruginosa 799/WT, agar dilution, read-out: MIC
[15] = K. oxytoca 1082, agar dilution, read-out: MIC
[16] = K. pneumoniae 418, agar dilution, read-out: MIC
[17] = S. pyogenes 15, agar dilution, read-out: MIC
[18] = P. aeruginosa 27853, agar dilution, read-out: MIC
[19] = P. aeruginosa 799/61, agar dilution, read-out: MIC

SMILES: Nc1nc(/C(=N/OCc2cc(Cl)c(O)c(O)c2Cl)C(=O)N[C@@H]2C(=O)N3C(C(=O)O)=C(CSc4nc(-c5ccccc5)ncc4-c4ccc(O)c(O)c4)CS[C@H]23)cs1 [Example 18, (6R,7R)-7-[(Z)-2-(2-amino-4-thiazolyl)-2-[[(2,5-dichloro-3,4-dihydroxybenzyl)oxy]imino]acetamido]-3-[[[5-(3,4-dihydroxyphenyl)-2-phenyl-4-pyrimidinyl]thio]methyl]-8-oxo-5-thia-1-azabicyclo[4.2.0]oct-2-ene-2-carboxylic acid]
- MIC (E. cloacae 908SSi; [4]): 8 µg/mL (≈ 9.21 µM)
- MIC (P. aeruginosa MK1184; [5]): 2 µg/mL (≈ 2.3 µM)
- MIC (P. mirabilis 2117; [6]): < 0.1 µg/mL
- MIC (P. aeruginosa BA; [7]): 1 µg/mL (≈ 1.15 µM)
- MIC (C. freundii 902; [8]): 0.12 µg/mL (≈ 0.138 µM)
- MIC (S. marcescens 69438; [9]): 1 µg/mL (≈ 1.15 µM)
- MIC (S. aureus 6538; [10]): > 32 µg/mL
- MIC (E. cloacae 908R; [11]): 2 µg/mL (≈ 2.3 µM)
- MIC (E. cloacae P99): 16 µg/mL (≈ 18.4 µM)
- MIC (P. vulgaris 1028; [12]): 0.12 µg/mL (≈ 0.138 µM)
- MIC (E. coli 25922 [1]; [13]): 0.12 µg/mL (≈ 0.138 µM)
- MIC (P. aeruginosa 799/WT; [14]): 0.12 µg/mL (≈ 0.138 µM)
- MIC (K. oxytoca 1082; [15]): 0.25 µg/mL (≈ 0.288 µM)
- MIC (K. pneumoniae 418; [16]): 0.12 µg/mL (≈ 0.138 µM)
- MIC (E. aerogenes CF153): 0.12 µg/mL (≈ 0.138 µM)
- MIC (S. pyogenes 15; [17]): 1 µg/mL (≈ 1.15 µM)
- MIC (P. aeruginosa 27853; [18]): 2 µg/mL (≈ 2.3 µM)
- MIC (P. aeruginosa 799/61; [19]): < 0.1 µg/mL

SMILES: CC(C)(O/N=C(\C(=O)N[C@@H]1C(=O)N2C(C(=O)O)=C(CS(=O)(=O)c3ccc(O)c(O)c3)CS[C@H]12)c1csc(N)n1)C(=O)NNC(=O)c1ccc(O)c(O)c1 [Example 47, (6R,7R)-7-[(Z)-2-(2-amino-4-thiazolyl)-2-[[1-[3-(3,4-dihydroxybenzoyl)carbazoyl]-1-methylethoxy]imino]acetamido]-3-[[(3,4-dihydroxyphenyl)sulphonyl]methyl]-8-oxo-5-thia-1-azabicyclo[4.2.0]oct-2-ene-2-carboxylic acid]
- ED50 ([2]; P. aeruginosa BA, albino mice, s.c. 1, 3 and 5 hours after infection, survival after 4 days, read-out: ED50): 0.1 mg/kg
- ED50 (E. coli 25922 [3]; Escherichia coli, sc, E. coli 25922, albino mice, s.c. 1 and 3 hours after infection, survival after 4 days, read-out: ED50): < 0.1 mg/kg
- MIC (E. cloacae 908SSi; [4]): 8 µg/mL (≈ 10.1 µM)
- MIC (P. aeruginosa MK1184; [5]): > 32 µg/mL
- MIC (P. mirabilis 2117; [6]): 0.12 µg/mL (≈ 0.152 µM)
- MIC (S. pneumoniae BA; S. pneumoniae BA, agar dilution, read-out: MIC): 1 µg/mL (≈ 1.26 µM)
- MIC (P. aeruginosa BA; [7]): 4 µg/mL (≈ 5.05 µM)
- MIC (C. freundii 902; [8]): 0.5 µg/mL (≈ 0.631 µM)
- MIC (S. marcescens 69438; [9]): 0.25 µg/mL (≈ 0.316 µM)
- MIC (S. aureus 6538; [10]): 32 µg/mL (≈ 40.4 µM)
- MIC (E. cloacae 908R; [11]): 1 µg/mL (≈ 1.26 µM)
- MIC (E. cloacae P99): 16 µg/mL (≈ 20.2 µM)
- MIC (P. vulgaris 1028; [12]): 0.25 µg/mL (≈ 0.316 µM)
- MIC (E. coli 25922 [1]; [13]): 0.12 µg/mL (≈ 0.152 µM)
- MIC (P. aeruginosa 799/WT; [14]): 4 µg/mL (≈ 5.05 µM)
- MIC (K. oxytoca 1082; [15]): 0.25 µg/mL (≈ 0.316 µM)
- MIC (K. pneumoniae 418; [16]): < 0.1 µg/mL
- MIC (S. pyogenes 15; [17]): 1 µg/mL (≈ 1.26 µM)
- MIC (P. aeruginosa 27853; [18]): 4 µg/mL (≈ 5.05 µM)
- MIC (P. aeruginosa 799/61; [19]): 0.25 µg/mL (≈ 0.316 µM)

SMILES: Cc1cc(SCC2=C(C(=O)[O-])N3C(=O)[C@@H](NC(=O)/C(=N\OCS(=O)(=O)c4ccc(O)c(O)c4)c4csc(N)n4)[C@H]3SC2)n2nc(COC(=O)c3ccc(O)c(O)c3)nc2n1.[Na+] [Example 7, (6R,7R)-7-[(Z)-2-(2-amino-4-thiazolyl)-2-[[[(3,4-dihydroxyphenyl)sulphonyl]methoxy]imino]acetamido]-3-[[[2-[[(3,4-dihydroxybenzoyl)oxy]methyl]-5-methyl-s-triazolo[1,5-a]pyrimidin-7-yl]thio]methyl]-8-oxo-5-thia-1-azabicyclo[4.2.0]oct-2-ene-2-carboxylic acid sodium salt (1:1)]
- ED50 [2]: 0.08 mg/kg
- ED50 (E. coli 25922 [3]; Escherichia coli, 25922, sc): < 0.3 mg/kg
- MIC (E. cloacae 908SSi; 908SSI): 4 µg/mL
- MIC (P. aeruginosa MK1184; MK1184): < 0.1 µg/mL
- MIC (P. mirabilis 2117; 2117): 0.12 µg/mL
- MIC (S. pneumoniae BA): 2 µg/mL
- MIC (P. aeruginosa BA): 0.12 µg/mL
- MIC (C. freundii 902; 902): 0.12 µg/mL
- MIC (S. marcescens 69438; 69438): 0.12 µg/mL
- MIC (S. aureus 6538; 6538): 32 µg/mL
- MIC (E. cloacae 908R; 908R): 2 µg/mL
- MIC (E. cloacae P99): 1 µg/mL
- MIC (P. vulgaris 1028; 1028): 0.12 µg/mL
- MIC (E. coli 25922 [1]; 25922): < 0.1 µg/mL
- MIC (P. aeruginosa 799/WT; 799/WT): 0.5 µg/mL
- MIC (K. oxytoca 1082; 1082): < 0.1 µg/mL
- MIC (K. pneumoniae 418; 418): < 0.1 µg/mL
- MIC (S. pyogenes 15; 15): 4 µg/mL
- MIC (P. aeruginosa 27853; 27853): 1 µg/mL
- MIC (P. aeruginosa 799/61; 799/61): 0.25 µg/mL
